# Measured values as given in patent publication US20150352108A1, “AMINO-PYRIMIDINE COMPOUNDS AS INHIBITORS OF TBK1 AND/OR IKK EPSILON” (Alzheimer's Institute of America, priority 2009, published 2015).
# pIC50: −log10 of the molar value.
# Target: T1, IKKε (Homo sapiens, UniProt Q14164)
# T1 construct: His-tag; made in house; host or cells: Sf9 insect cells
# T1 sequence (Q14164 1-716): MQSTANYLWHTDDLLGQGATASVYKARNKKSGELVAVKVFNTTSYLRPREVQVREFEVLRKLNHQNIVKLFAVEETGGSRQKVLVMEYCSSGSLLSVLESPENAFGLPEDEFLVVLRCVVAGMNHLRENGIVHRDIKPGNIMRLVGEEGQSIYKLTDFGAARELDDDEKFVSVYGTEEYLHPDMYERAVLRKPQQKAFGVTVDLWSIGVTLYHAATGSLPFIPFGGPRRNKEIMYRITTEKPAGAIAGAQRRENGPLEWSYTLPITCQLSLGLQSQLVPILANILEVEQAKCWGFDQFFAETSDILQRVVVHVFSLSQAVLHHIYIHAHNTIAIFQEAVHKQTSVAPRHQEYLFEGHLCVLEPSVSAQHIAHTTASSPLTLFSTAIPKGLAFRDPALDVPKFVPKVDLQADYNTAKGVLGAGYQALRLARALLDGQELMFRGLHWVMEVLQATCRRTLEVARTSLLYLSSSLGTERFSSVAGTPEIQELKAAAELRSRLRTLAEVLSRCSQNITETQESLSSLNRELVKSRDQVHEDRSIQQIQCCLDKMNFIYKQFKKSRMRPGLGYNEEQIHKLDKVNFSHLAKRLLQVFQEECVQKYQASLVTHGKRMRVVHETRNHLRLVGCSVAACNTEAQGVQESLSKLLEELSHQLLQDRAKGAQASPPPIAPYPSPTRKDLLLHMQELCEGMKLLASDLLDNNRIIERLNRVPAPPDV
# Experiment: In-vitro IKKε kinase assay ([γ33]ATP filter-plate)
# Type: biochemical
# Conditions: text bins; read-out: IC50 for inhibition of the kinase activity of IKKε
# Protocol: IKKε enzyme was produced as a His-tag fusion in Sf9 cells and used at a final concentration of […]. TBK1 enzyme was produced as a His-tag fusion in Sf9 cells and used at a final concentration of 0.1 μg/ml. Kinase reactions were carried out in reaction buffer using myelin basic protein (Millipore, Ballerica, Mass.) or casein (Sigma, St. Louis, Mo.) as substrate at an ATP concentration equal to twice the Km,ATP value for each enzyme, corresponding to 32 μM ATP for IKKε and 60 μM ATP for TBK1, in the presence of 0.3 μCi [γ^33]ATP (PerkinElmer, Waltham, Mass.). Final enzyme concentrations were 0.1 or 0.015 μg/ml (IKKε) and 0.1 or 0.02 μg/ml (TBK1), representing “normal” and “sensitized” assay conditions respectively. Test compounds (or DMSO solvent as a control) were added prior to initiation of the reactions. Reactions were terminated after 30-45 minutes by adding 3% phosphoric acid. Terminated reactions were transferred to P-81 cellulose phosphate filterplates (Whatman, Inc., Piscataway, N.J.) and washed with 1% phosphoric acid on a vacuum apparatus. After air drying, scintillant (PerkinElmer, Waltham, Mass.) was added and the plates were read on a PerkinElmer TopCount NXT instrument. Counts were normalized to DMSO controls after background subtraction.
row,Structure (SMILES),pIC50
1,"N#Cc1cc(-c2ccnc(Nc3ccc(N4CCOCC4)cc3)n2)ccc1OC1CCN(C(=O)[C@@H](O)C(F)(F)F)CC1 [Example 113, 5-(2-{[4-(morpholin-4-yl)phenyl]amino}pyrimidin-4-yl)-2-({1-[(2R)-3,3,3-trifluoro-2-hydroxypropanoyl]piperidin-4-yl}oxy)benzonitrile]",7.30 to 8.30
2,"N#Cc1cc(-c2ccnc(Nc3cccc(Cn4ccnn4)c3)n2)ccc1OC1CCOCC1 [compound 576, 2-(Tetrahydro-2H-pyran-4-yloxy)-5-(2-{[3-(1H-1,2,3-triazol-1-ylmethyl)phenyl]amino}pyrimidin-4-yl)benzonitrile]",> 8.30
3,"N#Cc1cc(-c2ccnc(Nc3ccc(N4CCOCC4)cc3)n2)ccc1OC1CN(C=O)C1 [Example 101, 2-[(1-formylazetidin-3-yl)oxy]-5-(2-{[4-(morpholin-4-yl)phenyl]amino}pyrimidin-4-yl)benzonitrile]",6.30 to 7.30
4,CC(C)(C)c1cccc(Nc2nccc(-c3cccc(C#N)c3)n2)c1 [compound 300],6.30 to 7.30
5,"N#Cc1cc(-c2ccnc(Nc3ccc(N4CCOCC4)cc3)n2)ccc1OCC1CN(C(=O)CO)C1 [Example 188, 2-{[1-(hydroxyacetyl)azetidin-3-yl]methoxy}-5-(2-{[4-(morpholin-4-yl)phenyl]amino}pyrimidin-4-yl)benzonitrile]",7.30 to 8.30
6,COC1CN(c2cccc(Nc3nccc(-c4ccc(O[C@@H]5CCN(C(=O)CO)C5)c(C#N)c4)n3)c2)C1 [compound 639],> 8.30
7,"CN(C)c1cccc(Nc2nccc(-c3cccc(C#N)c3)n2)c1 [compound 379, 3-(2-{[3-(Dimethylamino)phenyl]amino}pyrimidin-4-yl)benzonitrile]",6.30 to 7.30
8,COc1cc(NC(=O)c2ccncc2)cc(Nc2nccc(-c3ccc(OC)c(C#N)c3)n2)c1 [compound 357],6.30 to 7.30
9,"N#Cc1cc(-c2ccnc(Nc3ccc(N4CCOCC4)cc3)n2)ccc1Cl [Example 102, 2-Chloro-5-(2-{[4-(morpholin-4-yl)phenyl]amino}pyrimidin-4-yl)benzonitrile]",7.30 to 8.30
10,"CS(=O)(=O)N(c1ccc(-c2ccnc(Nc3ccc(N4CCOCC4)cc3)n2)cc1C#N)S(C)(=O)=O [Example 167, N-[2-Cyano-4-(2-{[4-(morpholin-4-yl)phenyl]amino}pyrimidin-4-yl)phenyl]-N-(methylsulfonyl) methanesulfonamide]",7.30 to 8.30
11,"CC(C)(N)C(=O)N1CCC(COc2ccc(-c3ccnc(Nc4ccc(N5CCOCC5)cc4)n3)cc2C#N)CC1 [Example 255, 2-{[1-(2-methylalanyl)piperidin-4-yl]methoxy}-5-(2-{[4-(morpholin-4-yl)phenyl]amino}pyrimidin-4-yl)benzonitrile]",6.30 to 7.30
12,"N#Cc1cc(-c2ccnc(Nc3ccc(N4CCOCC4)c(C(F)(F)F)c3)n2)ccc1OC1CCOCC1 [Example 120, 5-(2-{[4-(morpholin-4-yl)-3-(trifluoromethyl)phenyl]amino}pyrimidin-4-yl)-2-(tetrahydro-2H-pyran-4-yloxy)benzonitrile]",7.30 to 8.30
13,N#Cc1cc(-c2ccnc(Nc3ccc(N4CCOCC4)cc3)n2)ccc1OCCNC(=O)CCO [Example 95],6.30 to 7.30
14,"COc1ccc(Nc2ncc(C)c(-c3cccc(C#N)c3)n2)cc1OC [compound 304, 3-{2-[(3,4-Dimethoxyphenyl)amino]-5-methylpyrimidin-4-yl}benzonitrile]",6.30 to 7.30
15,COc1cc(NC(=O)NC2CCN(C)CC2)cc(Nc2nccc(-c3ccc(OC)c(C#N)c3)n2)c1 [compound 388],6.30 to 7.30
16,"CN(C)C(=O)N1CCC(Oc2ccc(-c3ccnc(Nc4ccc(N5CCOCC5)cc4)n3)cc2C#N)CC1 [Example 166, 4-[2-Cyano-4-(2-{[4-(morpholin-4-yl)phenyl]amino}pyrimidin-4-yl)phenoxy]-N,N-dimethylpiperidine-1-carboxamide]",6.30 to 7.30

row,Structure (SMILES),pIC50
1,"CC(=O)Nc1cccc(Nc2nccc(-c3cccc(C#N)c3)n2)c1 [Example 277, N-(3-{[4-(3-Cyanophenyl)pyrimidin-2-yl]amino}phenyl) acetamide]",6.30 to 7.30
2,COc1cc(NC(=O)c2ccccn2)cc(Nc2nccc(-c3ccc(OC)c(C#N)c3)n2)c1 [compound 365],6.30 to 7.30
3,"N#Cc1cc(-c2ccnc(Nc3ccc(N4CCOCC4)cc3)n2)ccc1OC1CN(CCO)C1 [compound 474, 2-{[1-(2-hydroxyethyl)azetidin-3-yl]oxy}-5-(2-{[4-(morpholin-4-yl)phenyl]amino}pyrimidin-4-yl)benzonitrile]",6.30 to 7.30
4,"COc1cc(Nc2nccc(-c3ccc(OC4CCNCC4)c(C#N)c3)n2)ccc1S(=O)(=O)NCCCO [compound 399, 4-({4-[3-cyano-4-(piperidin-4-yloxy)phenyl]pyrimidin-2-yl}amino)-N-(3-hydroxypropyl)-2-methoxybenzene-sulfonamide]",7.30 to 8.30
5,"COc1ccc(Nc2nccc(-c3cccc(C#N)c3)n2)cc1 [compound 319, 3-{2-[(4-Methoxyphenyl)amino]pyrimidin-4-yl}benzonitrile]",6.30 to 7.30
6,"N#Cc1cc(-c2ccnc(Nc3ccc(N4CCOCC4)cc3)n2)ccc1NC(=O)N1CCCCC1 [Example 44, N-[2-cyano-4-(2-{[4-(morpholin-4-yl)phenyl]amino}pyrimidin-4-yl)phenyl]piperidine-1-carboxamide]",6.30 to 7.30
7,"N#Cc1cc(-c2ccnc(Nc3ccc(N4CCOCC4)cc3)n2)ccc1OC1CCN(C(=O)C2CC2)C1 (centres unmarked) [Example 151, 2-{[1-(cyclopropylcarbonyl)pyrrolidin-3-yl]oxy}-5-(2-{[4-(morpholin-4-yl)phenyl]amino}pyrimidin-4-yl)benzonitrile]",6.30 to 7.30
8,"COc1ccc(-c2ccnc(Nc3ccc(OC)c(OC4CCN(C)CC4)c3)n2)cc1C#N [Example 289, 2-Methoxy-5-[2-({4-methoxy-3-[(1-methylpiperidin-4-yl)oxy]phenyl}amino)pyrimidin-4-yl]benzonitrile]",6.30 to 7.30
9,"CC(C)C(=O)Nc1ccc(-c2ccnc(Nc3ccc(C(C)CN4CCOCC4)cc3)n2)cc1C#N (centres unmarked) [compound 452, N-{2-cyano-4-[2-({4-[1-(morpholin-4-yl)propan-2-yl]phenyl}amino)pyrimidin-4-yl]phenyl}-2-methylpropanamide]",6.30 to 7.30
10,"N#Cc1cc(-c2ccnc(Nc3ccc(N4CCOCC4)cc3)n2)ccc1NC(=O)c1cccnc1 [Example 204, N-[2-cyano-4-(2-{[4-(morpholin-4-yl)phenyl]amino}pyrimidin-4-yl)phenyl]pyridine-3-carboxamide]",6.30 to 7.30
11,"CC(C)C(=O)Nc1ccc(-c2ccnc(Nc3ccc(CCN4CCNCC4)cc3)n2)cc1C#N [compound 451, N-{2-cyano-4-[2-({4-[2-(piperazin-1-yl)ethyl]phenyl}amino)pyrimidin-4-yl]phenyl}-2-methylpropanamide]",6.30 to 7.30
12,"COc1cc(NC(=O)NCCCNC(C)=O)cc(Nc2nccc(-c3ccc(OC)c(C#N)c3)n2)c1 [compound 391, N-(3-{[(3-{[4-(3-Cyano-4-methoxyphenyl)pyrimidin-2-yl]amino}-5-methoxyphenyl)carbamoyl]amino}propyl) acetamide]",6.30 to 7.30
13,"N#Cc1cc(-c2ccnc(Nc3cccc(NC(=O)NC4CCC(O)CC4)c3)n2)ccc1OC1CCOCC1 (centres unmarked) [compound 589, 1-[3-({4-[3-Cyano-4-(tetrahydro-2H-pyran-4-yloxy)phenyl]pyrimidin-2-yl}amino)phenyl]-3-(4-hydroxycyclohexyl) urea]",> 8.30
14,"CC(C)NC(=O)N1CCC(Oc2ccc(-c3ccnc(Nc4ccc(N5CCOCC5)cc4)n3)cc2C#N)CC1 [Example 37, 4-[2-Cyano-4-(2-{[4-(morpholin-4-yl)phenyl]amino}pyrimidin-4-yl)phenoxy]-N-(propan-2-yl)piperidine-1-carboxamide]",6.30 to 7.30
15,"N#Cc1cc(-c2ccnc(Nc3ccc(-c4cn[nH]c4)cc3)n2)ccc1OC1CCOCC1 [compound 579, 5-(2-{[4-(1H-Pyrazol-4-yl)phenyl]amino}pyrimidin-4-yl)-2-(tetrahydro-2H-pyran-4-yloxy)benzonitrile]",> 8.30
16,"COc1cc(NC(=O)Nc2ccccc2)cc(Nc2nccc(-c3ccc(OC)c(C#N)c3)n2)c1 [compound 364, 1-(3-{[4-(3-Cyano-4-methoxyphenyl)pyrimidin-2-yl]amino}-5-methoxyphenyl)-3-phenylurea]",7.30 to 8.30
